The results in this text go back to US20260373266A1, “PROTEIN DEGRADERS AND USES THEREOF” (KYMERA THERAPEUTICS, INC., priority 2022, published 2026).

Bounds are passed on as bounds.

T1 sequence (Q9Y4B6 1077-1390): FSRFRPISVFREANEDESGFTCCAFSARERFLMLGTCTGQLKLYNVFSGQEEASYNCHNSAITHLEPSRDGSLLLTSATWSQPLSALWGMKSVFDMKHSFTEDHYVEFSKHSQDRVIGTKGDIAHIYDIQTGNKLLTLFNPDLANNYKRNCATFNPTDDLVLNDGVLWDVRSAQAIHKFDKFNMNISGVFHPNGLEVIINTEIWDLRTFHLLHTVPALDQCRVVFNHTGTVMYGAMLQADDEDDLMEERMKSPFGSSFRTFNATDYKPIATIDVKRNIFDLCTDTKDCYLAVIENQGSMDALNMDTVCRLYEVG

This assay concerns the target T1, DCAF1 WD40 domain (residues 1077-1390) (Homo sapiens, UniProt Q9Y4B6).
T1 construct: DCAF1 WD40 domain (residues 1077-1390)
The assay can be described thus: DCAF1 binding assay by SPR (Biacore 8K+), DCAF1-3 KD. The settings on record: 25 °C, read-out: DCAF1-3 SPR (KD). Background: SPR reads the build-up and loss of mass on a sensor chip optically.
Turning to `Fc1cccc(N2CCC[C@H](Nc3nccc(N4CCOCC4)n3)C2)c1` [I-119], the Kd (in general, the constant that tells how readily two partners part at equilibrium) was 100 to 200 µM.

Regarding `Fc1cccc(N2C[C@H](F)C[C@@H](Nc3cc(N4CCOCC4)ccn3)C2)c1` [I-275], the Kd was over 200 µM.

`c1ccc2c(N3CCC[C@@H](Nc4cc(N5CCOCC5)ccn4)C3)nccc2c1` [I-62]: the dissociation constant (Kd) is over 200 µM.

For the molecule `NC(=O)[C@@H]1C[C@H](Nc2cc(N3CCCCC3)ccn2)CN(c2cccc(F)c2)C1` [I-1031], the Kd fell in the range of 10 to 100 µM.

With `Fc1cccc(N2CCCC(C3(c4cc(N5CCOCC5)ccn4)CC3)C2)c1` (stereo not drawn) [I-259], the Kd was over 200 µM.

With `NC(=O)C[C@H](NC(=O)c1cnn(CC2CCCC2)c1-c1ccccc1F)c1cccc(Cl)c1` [I-166], the Kd was over 200 µM.

As for `C=CC(=O)n1ccc(-c2n[nH]cc2C(=O)N[C@@H](CC(N)=O)c2cccc(Cl)c2)n1` [I-468], the Kd was over 200 µM.

Consider `C=CC(=O)NC1CCN(c2ccnc(N[C@@H]3CCCN(c4cccc(F)c4)C3)c2)C1` (stereo partly drawn) [I-456], for which the Kd is over 200 µM.

As to `Fc1cccc(N2CCC[C@@H](Nc3ccnc(N4CCOCC4)n3)C2)c1` [I-321], the Kd is over 200 µM.

As to `Cc1ccc(N2CCC[C@@H](Nc3cc(N4CCOCC4)ccn3)C2)cc1` [I-509], the Kd lay within 10 to 100 µM.

Take `C[C@H]1CC[C@H](c2[nH]ncc2C(=O)N[C@@H](CC(N)=O)c2cccc(Cl)c2)CC1` [I-741]: the Kd is under 10 µM.

Take `C=CC(=O)n1cc(-c2n[nH]cc2C(=O)N[C@@H](CC(N)=O)c2cccc(Cl)c2)cn1` [I-472]: the Kd is over 200 µM.

As to `Cc1c(F)ccc(F)c1-c1c(C(=O)N[C@@H](CC(N)=O)c2cccc(Cl)c2)c[nH]c1C(=O)c1ccc(CCCOCCOCCOCCN)cc1` [I-806], the Kd is under 10 µM.

Regarding `Cc1c(F)ccc(F)c1-c1c(C(=O)N[C@@H](CC(N)=O)c2cccc(Cl)c2)c[nH]c1S(C)(=O)=O` [I-882], the Kd is under 10 µM.

With `Fc1cccc(NC2CCCN(c3cc(N4CCOCC4)ncn3)C2)c1` (stereo not drawn) [I-179], the Kd is over 200 µM.

Consider `Oc1ccc(F)cc1N1CCC[C@@H]2[C@H]1CCN2c1cc(N2CCCCC2)ccn1` [I-812], for which the Kd lay within 10 to 100 µM.

Consider `OCCc1ccc(N2CCC[C@@H](Nc3cc(N4CCOCC4)ccn3)C2)nc1` [I-691], for which the Kd is 10 to 100 µM.

`Cc1cc(Cl)cc([C@@H](CC(N)=O)NC(=O)c2cn[nH]c2-c2c(C)cccc2F)c1` [I-738]: the Kd is under 10 µM.

On to `c1cc(CN2CCCC2)cc(N2CCC[C@@H](Nc3cc(N4CCOCC4)ccn3)C2)c1` [I-689], for which the Kd was under 10 µM.

Regarding `NC(=O)C[C@H](NC(=O)c1c[nH]nc1-c1ccc2[nH]cnc2c1)c1cccc(Cl)c1` [I-240], the equilibrium dissociation constant (Kd) was over 200 µM.

For `O=C(N[C@H](c1cccc(Cl)c1)[C@H]1CCCNC1=O)c1c[nH]nc1-c1ccccc1F` [I-194], the Kd is over 200 µM.

As for `NC(=O)C[C@H](NC(=O)c1cn[nH]c1-c1ccccc1F)c1ccccc1O` [I-339], the Kd is over 200 µM.

Regarding `NC(=O)C[C@H](NC(=O)c1cnn(C(=O)c2ccccc2)c1-c1ccccc1F)c1cccc(Cl)c1` [I-173], the Kd was over 200 µM.

For `Oc1ccc(N2CCC[C@@H](Nc3cc(N4CCCCC4)ccn3)C2)cc1` [I-593], the Kd was under 10 µM.

For the molecule `Fc1ccccc1N1CCC[C@@H](Nc2cc(N3CCOCC3)ncn2)C1` [I-3], the dissociation constant Kd was over 200 µM.

In the case of `OC[C@H]1CC[C@H](Nc2cc(N3CCCCC3)ccn2)CN1c1cccc(F)c1` [I-994], the Kd was 10 to 100 µM.

Turning to `Cc1cccc(F)c1-c1c(C(=O)N[C@@H](CC(N)=O)c2cccc(Cl)c2)c[nH]c1C#N` [I-637], the Kd is under 10 µM.

In the case of `NC(=O)C[C@H](NC(=O)c1cn[nH]c1[C@@H]1CCCCO1)c1cccc(Cl)c1` [I-347], the equilibrium dissociation constant (Kd) is over 200 µM.

Regarding `C=CC(=O)NC1CCN(c2ccnc(N[C@@H]3CCCN(c4cccc(F)c4)C3)c2)CC1` [I-451], the Kd is over 200 µM.

For the molecule `NC(=O)C[C@H](NC(=O)CNC1=Nc2ccccc2CC1)c1cccc(Cl)c1` [I-440], the Kd was over 200 µM.

On to `CCC1CCCN(c2ccnc(N[C@@H]3CCCN(c4cccc(F)c4)C3)c2)C1` (stereo partly drawn) [I-572], for which the Kd was in the range of 10 to 100 µM.

`C[C@H]1CCCCN1c1ccnc2c1CCN2C1CCCN(c2cccc(F)c2)C1` (stereo partly drawn) [I-788]: the Kd was under 10 µM.

For the molecule `NC(=O)C[C@H](NC(=O)c1nc(N)[nH]c1-c1ccccc1F)c1cccc(Cl)c1` [I-220], the Kd was over 200 µM.

Consider `O=C(N[C@H](c1cccc(Cl)c1)[C@H]1CCNC1=O)c1c[nH]nc1-c1ccccc1F` [I-192], for which the dissociation constant (Kd) was over 200 µM.

Consider `NC(=O)C[C@H](NC(=O)c1c[nH]nc1-c1cc(F)ccc1F)c1cccc(Cl)c1` [I-267], for which the Kd was over 200 µM.

In the case of `NC(=O)C[C@H](NC(=O)c1cn[nH]c1-c1ccncc1)c1cccc(Cl)c1` [I-336], the Kd lay within 10 to 100 µM.

In the case of `CN1CCN(CCC2CCN(c3ccnc(N4CC[C@@H]5[C@H]4CCCN5c4cccc(F)c4)c3)CC2)CC1` [I-816], the dissociation constant Kd is under 10 µM.

`NC(=O)C[C@H](NC(=O)c1c[nH]c(-c2ccccc2)c1-c1ccccc1F)c1cccc(Cl)c1` [I-594]: the Kd is under 10 µM.

Consider `NCCCCCCCCCCCCCCCCCCCCC1CCN(c2ccnc(N3CC[C@@H]4[C@H]3CCCN4c3cccc(F)c3)c2)CC1` [I-745], for which the Kd was over 200 µM.

On to `c1ccc2cc(N3CCC[C@@H](Nc4cc(N5CCOCC5)ncn4)C3)ncc2c1` [I-398], for which the Kd is over 200 µM.

Consider `NC(=O)C[C@H](NC(=O)c1cn[nH]c1-c1ccc(C(N)=O)cc1)c1cccc(Cl)c1` [I-351], for which the Kd lay within 10 to 100 µM.

Consider `Cc1cccc(F)c1-c1c(C(=O)N[C@@H](CC(N)=O)c2cccc(Cl)c2)c[nH]c1C(=O)c1ccccn1` [I-699], for which the Kd is under 10 µM.

As to `NC(=O)CCc1cccc(N2CCC[C@@H]3[C@H]2CCN3c2cc(N3CCCCC3)ccn2)c1` [I-879], the dissociation constant (Kd) lay within 10 to 100 µM.

On to `c1ccc(N2CCC[C@@H](Nc3cc(N4CCOCC4)ncn3)C2)cc1` [I-2], for which the Kd lay within 100 to 200 µM.

Turning to `Cc1c(F)ccc(F)c1-c1[nH]ncc1C(=O)N[C@@H](CC(=O)N1CC(O)C1)c1cccc(Cl)c1` [I-877], the Kd was under 10 µM.

As for `Cc1ccc(F)c(C)c1-c1c(C(=O)N[C@@H](CC(N)=O)c2cccc(Cl)c2)c[nH]c1C(=O)COCCOCCOCCOCCOCCNC(=O)C[C@@H]1N=C(c2ccc(Cl)cc2)c2c(sc(C)c2C)-n2c(C)nnc21` [I-909], the Kd was under 10 µM.

Consider `Cc1c(F)ccc(F)c1-c1c(C(=O)N[C@@H](CC(=O)N2CC[C@H](O)C2)c2cccc(Cl)c2)cn(C)c1C#N` [I-1004], for which the Kd was under 10 µM.

Turning to `Oc1ccc(N2CCC[C@@H](Nc3cncc(N4CCOCC4)c3)C2)cc1` [I-567], the Kd was in the range of 10 to 100 µM.

As for `NC(=O)C[C@H](NC(=O)c1[nH]ccc1-c1ccccc1F)c1cccc(Cl)c1` [I-114], the Kd was 10 to 100 µM.

On to `NC(=O)C[C@H](NC(=O)c1c(-c2ccccc2F)cc[nH]c1=O)c1cccc(Cl)c1` [I-216], for which the Kd is over 200 µM.

With `C=CC(=O)NCCCN1CCN(c2ccnc(N[C@@H]3CCCN(c4cccc(F)c4)C3)c2)CC1` [I-621], the dissociation constant (Kd) lay in the range of 100 to 200 µM.

Turning to `C[S+]([O-])CN(c1cc(N2CCCOC2)ccn1)[C@H]1CCCN(c2cccc(F)c2)C1` (stereo partly drawn) [I-539], the Kd lay in the range of 10 to 100 µM.

Turning to `Fc1cccc(N2CCC[C@@H](N3CCc4c(N5CC6CC(C6)C5)ccnc43)C2)c1` [I-841], the dissociation constant Kd is under 10 µM.

Turning to `C=CC(=O)NCCC1CCN(c2ccnc(N3CC[C@H]4[C@@H]3CCCN4c3cccc(F)c3)c2)CC1` [I-672], the Kd was under 10 µM.
